This is an account of results in patent US20110173718A1, “HERBICIDE TOLERANT PLANTS” (SYNGENTA CROP PROTECTION, INC., priority 2008, published 2011).

Where two headings read alike, the source gives them in different places. Marks after values point to notes of the source that are not given here.

In experiment [1] the target is T1, Chlamydomonas HST (Chlamydomonas reinhardtii, UniProt A1JHN0).
T1 construct: GST (N); made in house; host or cells: E. coli (BL21A1 / BL21DE3), membrane fraction
T1 sequence (A1JHN0 51-370): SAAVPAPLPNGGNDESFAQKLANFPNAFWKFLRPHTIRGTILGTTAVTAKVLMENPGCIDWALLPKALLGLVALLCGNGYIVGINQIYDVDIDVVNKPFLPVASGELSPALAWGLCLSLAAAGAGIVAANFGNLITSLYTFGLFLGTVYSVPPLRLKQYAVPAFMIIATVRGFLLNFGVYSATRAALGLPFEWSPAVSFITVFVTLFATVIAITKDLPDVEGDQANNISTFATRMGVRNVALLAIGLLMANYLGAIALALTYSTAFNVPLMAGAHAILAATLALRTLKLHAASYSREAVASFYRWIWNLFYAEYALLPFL
In words: HST assay (TLC, MFBQ formed), recombinant Chlamydomonas HST in E. coli membranes. Format: biochemical. To be noted: TLC, estimated amount of MFBQ formed, relative to controls. As for the experimental part: Alternatively, Arabidopsis and Chlamydomonas mature HST coding sequences are cloned as GST N-terminal fusion enzymes and expressed in E. coli.
E. coli. BL21A1 cells expressing mature Arabidopsis or Chlamydonionas HST as a GST N-terminal fusion proteins are grown, harvested, broken and membrane fractions expressing HST produced.
For example, 1 ng of recombinant DNA is used to transform BL21DE3 cells to obtain a plateful of individual colonies. One of these colonies is picked and used to inoculate an overnight culture of 100 ml of Luria Broth (LB) supplemented with 50 ug/ml of kanamycin at final concentration, grown at 37° C. with shaking at 220 rpm. Next morning, 10 mls of the overnight culture is used to inoculate 11 of fresh sterile LB supplemented with 50 ug/ml of kanamycin at final concentration, grown at 37° C. with shaking at 220 rpm until the OD reached 0.6 at 600 nm, induced with the addition of 0.1 mM IPTG and left to induce at 15° C. overnight. The cells are harvested by centrifugation at 4600 rpm for 10 min at 4° C. and the pellet stored at −80° C. […] E. coli cell pellet is then resuspended in 25 ml of 50 mM Tris, pH 7.5 supplemented with Roche EDTA-free protease inhibitor tablet (one tablet in 200 mls of buffer). 10 ml of cells are lysed by sonication on ice. The resultant lysed cells are centrifuged at 3000 g for 10 min to pellet the cell nuclei/debris etc. 10 mls of supernatant is aspirated and centrifuged at 150,000 g for 60 min at 4° C. The pellet containing the membranes is resuspended in 2 ml of the above buffer. These samples are stored as 100 ul aliquots at −80° C., after being diluted with addition of glycerol to 50% v/v.
Prenyltransferase (HST) activities are measured by determining the prenylation rates of [U—^14C]homogentisate using farnesyl diphosphate (FDP) as prenyl donor. ^14C homogentisate is prepared from ^14C tyrosine using L amino acid oxidase and HPPD. For inhibitor testing, compounds are dissolved in dimethylsulfoxide (DMSO). DMSO added at up to 2% v/v has no effect on assays. Control assays contain DMSO at the same concentration as in inhibitor containing assays.
The recombinant Chlamydomonas HST expressed in E. coli membranes is assayed in standard reaction mixtures with 200 μM FDP and 100 μM ^14C-homogentisate (40 dpm/pmol) in 50 mM Tricine-NaOH pH 8.5, 20 mM MgCl2. Assays are started with the addition of enzyme and run for ˜20 min at 28° C.
Recombinant Arabidopsis and Rice HSTs are expressed in insect cells. Assays are run as for Chlamydomonas HST except that assay temperature is 27° C. Assays are stopped with 300 ul of solvent mix (1:2, Chloroform:Methanol) and 100 ul of 0.5% NaCl, agitated/mixed and spun at 13,000 rpm in a benchtop eppendorf centrifuge for 5 minutes. 80 ul of the lower phase extract is loaded onto a TLC plate (silica Gel 60, 20 cm×20 cm) FLA3000 system and run for 35 minutes in dichloromethane. The radioactivity is quantified using a Fuji Phosphoimager and band intensity integrated as quantitative measure of product amount. The bands corresponding to oxidised and reduced 2-methyl-6-farnesyl-1,4-benzoquinol (MFBQ) are identified and the total of the two (oxidised and reduced) band intensities is calculated in order to estimate the total amount of MFBQ product formation. Specific activities of 8 pmol MFBQ min^−1 mg^−1 protein (23 pmol) and 7 pmol MFBQ min^−1 mg^−1 protein (14 pmol) are, for example, estimated for the GST-fusion truncated Arabidopsis HST gene (SEQ ID # 3) expressed in membranes from insect cells 4 days and 5 days after transfection respectively. Similar results are noted from past literature on E. coli expressed Arabidopsis HST. Activity from the insect cell expressed GST-fusion truncated rice HST (SEQ ID# 4) is similar. Expression of the non-truncated HST coding sequences as GST fusions also gives HST activity. […]

In experiment [2] the target is T2, Arabidopsis HST (Arabidopsis thaliana, UniProt Q1ACB3).
T2 construct: GST (factor Xa cleavage site) (N); made in house; host or cells: Sf9 insect cells (baculovirus, pAcG3X), membrane fraction
T2 sequence (Q1ACB3 70-386): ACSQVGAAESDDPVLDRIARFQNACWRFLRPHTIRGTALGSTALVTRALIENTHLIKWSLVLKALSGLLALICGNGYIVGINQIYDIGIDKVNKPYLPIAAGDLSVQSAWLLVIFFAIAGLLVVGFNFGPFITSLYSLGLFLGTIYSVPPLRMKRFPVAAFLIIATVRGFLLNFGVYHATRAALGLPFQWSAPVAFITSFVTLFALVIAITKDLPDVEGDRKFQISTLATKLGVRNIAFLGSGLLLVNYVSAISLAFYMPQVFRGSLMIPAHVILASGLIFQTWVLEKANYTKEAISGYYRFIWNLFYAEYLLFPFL
In words: HST total extraction (non TLC) assay, recombinant Arabidopsis HST from insect cells. It counts as biochemical.

The test system of experiment [3] is weeds. In words: Glasshouse weed control, HST inhibitors alone and with A22, post-emergence. Format: in vivo. The conditions noted are these: 14 DAT, single replicate. The procedure, abridged: (§1)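 Weeds grown in glasshouse trays (24-27 C day, 18-21 C night, ~15 h photoperiod) and track-sprayed in 0.2% X77 at […], pre-emergence or post-emergence at about 7-12 d. HPPD inhibitor A22 applied at 2 g/ha alone or mixed with HST herbicides. Damage scored 0–100% at 14 DAT; synergy calculated by Colby formula.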

Experiment [4] deals with weeds. Put plainly: Glasshouse weed control, HST inhibitors alone and with A22, pre-emergence. It counts as in vivo. To be noted: 14 DAT. The procedure, abridged:
as §1

Setting [5] is: 3 point dose curves only conducted at 50 μM HPP.

On to `Cn1c(=O)c(-c2c(F)ccc(F)c2Cl)c(O)c2nccnc21` [Compound 2.4], for which, in experiment [1], the “Chlamydomonas. HST % I at 10 ppm” value is 5% and the “Chlamydomonas. HST % I at 100 ppm” value is on record as 45%. The “Estimated IC50 (ppm)” value in experiment [2] (setting [5]) was 211* ppm.

With `Cn1c(=O)c(-c2c(F)ccc(Br)c2Cl)c(O)c2nccnc21` [Compound 2.5], in experiment [1], the “Chlamydomonas. HST % I at 10 ppm” value is 70% and the “Chlamydomonas. HST % I at 100 ppm” value was 90%. Also, in experiment [2] (setting [5]), the “Estimated IC50 (ppm)” value is on record as 48* ppm.

Regarding `C#Cn1c(=O)c(-c2c(F)ccc(F)c2Cl)c(O)c2nccnc21` [Compound 2.18], the “% control score, Obs” value in experiment [3] (BRAPL, 15.625 g/ha alone) is listed as 5%; in experiment [3] (BRAPL, 62.5 g/ha alone), 60%; in experiment [3] (BRAPL, 250 g/ha alone), 80%; in experiment [3] (DIGSA, 15.625 g/ha alone) it was 1%; in experiment [3] (DIGSA, 62.5 g/ha alone), 30%; in experiment [3] (DIGSA, 250 g/ha alone) it was 50%. For the same molecule, the “% control score, Obs” value came to 2% in experiment [3] (ECHCG, 15.625 g/ha alone); 40% in experiment [3] (ECHCG, 62.5 g/ha alone); 70% in experiment [3] (ECHCG, 250 g/ha alone); 10% in experiment [3] (PANMI, 15.625 g/ha alone); 65% in experiment [3] (PANMI, 62.5 g/ha alone); 70% in experiment [3] (PANMI, 250 g/ha alone). Further, the “% control score, Obs” value in experiment [3] (SETFA, 15.625 g/ha alone) was 10%; in experiment [3] (SETFA, 62.5 g/ha alone), 60%; in experiment [3] (SETFA, 250 g/ha alone) it was 85%; in experiment [3] (SIDSP, 15.625 g/ha alone), 15%; in experiment [3] (SIDSP, 62.5 g/ha alone), 60%; in experiment [3] (SIDSP, 250 g/ha alone), 70%. In addition, the “Estimated IC50 (ppm)” value in experiment [2] was 6 ppm. The “BRAPL Obs, % control score” value in experiment [4] (HST inhibitor rate 15.625 g/ha) is 0%; in experiment [4] (HST inhibitor rate 62.5 g/ha) it was 10%; in experiment [4] (HST inhibitor rate 250 g/ha), 40%. Further, the “DIGSA Obs, % control score” value in experiment [4] (HST inhibitor rate 15.625 g/ha), in experiment [4] (HST inhibitor rate 62.5 g/ha) and in experiment [4] (HST inhibitor rate 250 g/ha) was 0% in each case. In addition, the “ECHCG Obs, % control score” value in experiment [4] (HST inhibitor rate 15.625 g/ha) was 0%; in experiment [4] (HST inhibitor rate 62.5 g/ha) it was 20%; in experiment [4] (HST inhibitor rate 250 g/ha) it was 20%. The “PANMI Obs, % control score” value in experiment [4] (HST inhibitor rate 15.625 g/ha) worked out at 0%; in experiment [4] (HST inhibitor rate 62.5 g/ha) it was 0%; in experiment [4] (HST inhibitor rate 250 g/ha), 50%. Also, the “SETFA Obs, % control score” value in experiment [4] (HST inhibitor rate 15.625 g/ha) is recorded as 0%; in experiment [4] (HST inhibitor rate 62.5 g/ha) it was 20%; in experiment [4] (HST inhibitor rate 250 g/ha), 25%. For the same molecule, the “SIDSP Obs, % control score” value in experiment [4] (HST inhibitor rate 15.625 g/ha) was 0%; in experiment [4] (HST inhibitor rate 62.5 g/ha), 30%; in experiment [4] (HST inhibitor rate 250 g/ha) it was 30%.
